Experiment [1] deals with rheumatoid arthritis. Particulars: 0.5-5 mg, twice a day, PO ref 27; cited from earlier work.
Experiment [2] relates to PI3Kβ/α. The experiment is described as follows: pAKT in PC3 cell line. Format: cell-based.
Experiment [3] deals with human B and T cell cocultures. The following applies: BioMAP T:B cocultures ref 10; cited from earlier work.

Usually IC50 stands for the concentration that gives 50% inhibition. Read a high IC50 as a need for much substance. As to `C[C@H](Nc1ncnc2nc[nH]c12)c1cc2cccc(Cl)c2c(=O)n1-c1ccccc1` [duvelisib], in experiment [1], the “efficacy in rheumatoid arthritis clinical trials” value was “efficacy could not be demonstrated”. In experiment [2], the IC50 was determined as […].
Turning to `[O-][n+]1cccc(-c2nc3c(Cl)cccc3cc2[C@@H](Nc2ncnc3cccnc23)C(F)(F)F)c1` [seletalisib], the IgG production entry in experiment [3] is reported as “attenuation of IgG production”.

The record behind these values is publication PMC6957347 (Pharmacology Research & Perspectives, 2020).
